Experimental data taken from patent US11919902B2, “Aryl-bipyridine amine derivatives as phosphatidylinositol phosphate kinase inhibitors” (HiberCell, Inc., priority 2017, dated 2024).

Tests used:
GST tagged PIP4KtypeIIA = biological target: T1, GST tagged PIP4KtypeIIA (Homo sapiens, UniProt P48426); assay: ADP-glo kinase assay PIP4K 2A (PIP4KtypeIIA inhibition assay); type: biochemical; details: Table 3; compounds listed under IC50 range headings; 10 uM ATP, 0.5 nM PIP4KIIA
T1 construct: made in house; host or cells: E. coli
T1 sequence (P48426 1-406): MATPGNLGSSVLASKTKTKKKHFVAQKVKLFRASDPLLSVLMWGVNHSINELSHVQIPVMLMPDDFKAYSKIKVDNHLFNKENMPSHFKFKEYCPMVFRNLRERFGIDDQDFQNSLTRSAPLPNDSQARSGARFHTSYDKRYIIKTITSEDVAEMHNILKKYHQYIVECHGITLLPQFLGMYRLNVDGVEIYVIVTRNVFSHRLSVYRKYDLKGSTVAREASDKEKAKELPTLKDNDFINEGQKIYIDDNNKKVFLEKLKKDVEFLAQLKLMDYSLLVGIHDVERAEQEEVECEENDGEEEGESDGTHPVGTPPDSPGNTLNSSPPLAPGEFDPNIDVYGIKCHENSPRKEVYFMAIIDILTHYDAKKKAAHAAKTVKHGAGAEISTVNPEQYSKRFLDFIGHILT
Description: GST tagged PIP4KtypeIIA and B enzymes were overexpressed in E. Coli and purified to >80% homogeneity. Phosphatidyl inositol-5-phosphate (PI5P, Cat. #850152, Avanti Polar Lipids Inc.) was used as the lipid substrate and phosphatidyl ethanolamine (DOPE 18:1, Cat. #850725, Avanti Polar Lipids Inc.) was used as the carrier lipid for assays. Ultrapure ATP and GTP was purchased from Bellbrooke Labs. ADP Glo reagents were obtained from Promega. Transcreener FI reagent was obtained from Bellbrooke labs.
1. HEPES buffer mix: 200 mM HEPES pH 7.4, 50 mM MgCl2, 0.05% v/v triton×100
2. HNE buffer: 20 mM HEPES, pH 7.4, 100 mM NaCl, 0.5 mM EGTA
3. H:E buffer: 30 mM HEPES, pH 7.4, 1 mM EGTA
Enzyme preparation: GST-tagged PIP4KtypeIIA (5 uL, 1.43 mg/mL) was diluted (1:10) to 50 uL using HNE buffer. From the 1:10 diluted stock, a 6.4 uL aliquot was diluted further to 5 mL using HNE buffer to yield 5× enzyme stock (2.5 nM).
Lipid Preparation: In a 10 mL pyrex glass vial, lug of PI5P and lug of DOPE were suspended in 2.5 mL of HEPES buffer mix and 2.5 mL of H:E buffer. The contents were mixed and sonicated for 3 min to yield a translucent lipid stock.
Compound Preparation: Compounds were stored as 5 mM stocks in neat DMSO as room temperature in glass vials. 5 mM stocks were diluted to 2 mM and then serially diluted (3×) in neat DMSO in 96 well polypropylene plates. From the serially diluted stocks, 3 uL was delivered into 250 uL of 25% DMSO (in water) to generate 5× compound stocks. Typically, the highest compound conc. was 24 uM.
The assay volume was kept at 25 uL. To each well of the reaction plate, 10 uL of lipid stock (1:1 ratio PI5P:DOPE) was delivered. This was followed by the addition of 5 uL of compound in 25% DMSO. Then, to each well, 5 uL of 2.5 nM (5×) typeIIA enzyme was delivered. The contents were mixed well and incubated for 1 h at 27 C. After 1 h, reaction was initiated by adding 5 uL of 50 uM ATP and the contents were mixed well with a multi-channel pipetteman. The final concentration of the reagents are as follows: 50 mM HEPES, pH 7.3, 10 mM MgCl2, 20 mM NaCl, 0.01% v/v triton-X100, 5% DMSO, 10 uM ATP, 80 uM (2 ug) PI5P, 2 ug DOPE, and 0.5 nM PIP4KIIA. Typically, the highest conc. of compounds was 4.8 uM and the lowest conc. was 0.
After 1 hr, the reaction was quenched by adding 25 uL of ADP Glo reagent. The contents were incubated for 1 hr. Afterwards, 50 uL of kinase detection reagent was delivered. The contents were incubated for another hour. The luminescence was read using Molecular Devices Paradigm plate reader. […] The blanks were averaged and subtracted from all other wells. Using a calibration curve, RLU was converted to uM ADP (product). IC50 was calculated by plotting the residual activity (expressed as % No inhibitor control) vs. log [Inh. conc.]

GST tagged PIP4KtypeIIB = biological target: T2, GST tagged PIP4KtypeIIB (Homo sapiens, UniProt P78356); assay: Trans-FI P kinase assay PIP4K2B (PIP4KtypeIIB inhibition assay); type: biochemical; details: Table 4; compounds listed under IC50 range headings; 100 uM GTP, 5 nM PIP4KIIB; read-out: Trans-FI P kinase assays: PIP4K2B IC50
T2 construct: made in house; host or cells: E. coli
T2 sequence (P78356 1-416): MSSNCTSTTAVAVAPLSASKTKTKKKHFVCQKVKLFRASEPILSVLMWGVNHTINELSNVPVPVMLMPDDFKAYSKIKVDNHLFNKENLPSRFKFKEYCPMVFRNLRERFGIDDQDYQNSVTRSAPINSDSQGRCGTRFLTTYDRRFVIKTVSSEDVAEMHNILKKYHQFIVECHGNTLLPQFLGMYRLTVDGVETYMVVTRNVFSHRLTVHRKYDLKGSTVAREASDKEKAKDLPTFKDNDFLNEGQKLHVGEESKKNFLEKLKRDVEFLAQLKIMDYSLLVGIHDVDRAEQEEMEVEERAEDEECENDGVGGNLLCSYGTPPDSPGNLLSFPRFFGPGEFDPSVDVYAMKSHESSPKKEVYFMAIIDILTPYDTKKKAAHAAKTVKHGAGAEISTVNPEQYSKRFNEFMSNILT
Outline: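 Transcreener FI fluorescence, converted to GDP by calibration, tracked product from 5 nM E. coli-expressed GST-PIP4KIIB acting on 80 uM PI5P (DOPE carrier) with 100 uM GTP. Compound (top 4.8 uM final, 5% DMSO) was preincubated 1 h at 27 C before the 2 h reaction; IC50 fitted from residual activity.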

Row | IC50 (GST tagged PIP4KtypeIIA) [nM] | IC50 (GST tagged PIP4KtypeIIB) [nM] | Compound
1 | 100 to 1000 | 100 to 1000 | O=C(c1cc2c(-c3cncc(-c4ccc(N5CCCC5=O)cc4)c3)ccnc2[nH]1)N1CCOCC1 [Example 229, 1-(4-(5-(2-(morpholine-4-carbonyl)-1H-pyrrolo[2,3-b]pyridin-4-yl)pyridin-3-yl)phenyl)pyrrolidin-2-one]
2 | 100 to 1000 | 10 to 100 | O=C(NCc1ccccc1)c1cc2c(-c3cncc(-c4ccc(N5CCCC5=O)cc4)c3)ccnc2[nH]1 [Example 232, N-benzyl-4-(5-(4-(2-oxopyrrolidin-1-yl)phenyl)pyridin-3-yl)-1H-pyrrolo[2,3-b]pyridine-2-carboxamide]
3 | 100 to 1000 | 10 to 100 | O=C(NCc1ccncc1)c1cc2c(-c3cncc(-c4ccc(N5CCCC5=O)cc4)c3)ccnc2[nH]1 [Example 233, 4-(5-(4-(2-oxopyrrolidin-1-yl)phenyl)pyridin-3-yl)-N-(pyridin-4-ylmethyl)-1H-pyrrolo[2,3-b]pyridine-2-carboxamide]
4 | 100 to 1000 | 10 to 100 | CC(C)CNC(=O)c1cc2c(-c3cncc(-c4ccc(N5CCCC5=O)cc4)c3)ccnc2[nH]1 [Example 234, N-isobutyl-4-(5-(4-(2-oxopyrrolidin-1-yl)phenyl)pyridin-3-yl)-1H-pyrrolo[2,3-b]pyridine-2-carboxamide]
5 | 100 to 1000 | 100 to 1000 | O=C(c1cc2c(-c3cncc(-c4ccc(N5CCCC5=O)cc4)c3)ccnc2[nH]1)N1CCCC1 [Example 235, 1-(4-(5-(2-(pyrrolidine-1-carbonyl)-1H-pyrrolo[2,3-b]pyridin-4-yl)pyridin-3-yl)phenyl)pyrrolidin-2-one]
6 | 100 to 1000 | 10 to 100 | O=C(NCCc1ccccc1)c1cc2c(-c3cncc(-c4ccc(N5CCCC5=O)cc4)c3)ccnc2[nH]1 [Example 236, 4-(5-(4-(2-oxopyrrolidin-1-yl)phenyl)pyridin-3-yl)-N-phenethyl-1H-pyrrolo[2,3-b]pyridine-2-carboxamide]
7 | 100 to 1000 | 10 to 100 | O=C(NCCc1cccnc1)c1cc2c(-c3cncc(-c4ccc(N5CCCC5=O)cc4)c3)ccnc2[nH]1 [Example 237, 4-(5-(4-(2-oxopyrrolidin-1-yl)phenyl)pyridin-3-yl)-N-(2-(pyridin-3-yl)ethyl)-1H-pyrrolo[2,3-b]pyridine-2-carboxamide]
8 | 100 to 1000 | 10 to 100 | O=C(NCc1cccnc1)c1cc2c(-c3cncc(-c4ccc(N5CCCC5=O)cc4)c3)ccnc2[nH]1 [Example 238, 4-(5-(4-(2-oxopyrrolidin-1-yl)phenyl)pyridin-3-yl)-N-(pyridin-3-ylmethyl)-1H-pyrrolo[2,3-b]pyridine-2-carboxamide]
9 | 100 to 1000 | 10 to 100 | O=C(NCc1ccccn1)c1cc2c(-c3cncc(-c4ccc(N5CCCC5=O)cc4)c3)ccnc2[nH]1 [Example 239, 4-(5-(4-(2-oxopyrrolidin-1-yl)phenyl)pyridin-3-yl)-N-(pyridin-2-ylmethyl)-1H-pyrrolo[2,3-b]pyridine-2-carboxamide]
10 | 100 to 1000 | 10 to 100 | CNC(=O)c1cc2c(-c3cncc(-c4ccc(N5CCCC5=O)cc4)c3)ccnc2[nH]1 [Example 240, N-methyl-4-(5-(4-(2-oxopyrrolidin-1-yl)phenyl)pyridin-3-yl)-1H-pyrrolo[2,3-b]pyridine-2-carboxamide]
11 | 100 to 1000 | 10 to 100 | O=C(NC1CC1)c1cc2c(-c3cncc(-c4ccc(N5CCCC5=O)cc4)c3)ccnc2[nH]1 [Example 242, N-cyclopropyl-4-(5-(4-(2-oxopyrrolidin-1-yl)phenyl)pyridin-3-yl)-1H-pyrrolo[2,3-b]pyridine-2-carboxamide]
12 | 100 to 1000 | 10 to 100 | O=C(NCCc1ncc[nH]1)c1cc2c(-c3cncc(-c4ccc(N5CCCC5)cc4)c3)ccnc2[nH]1 [Example 244, N-(2-(1H-imidazol-2-yl)ethyl)-4-(5-(4-(pyrrolidin-1-yl)phenyl)pyridin-3-yl)-1H-pyrrolo[2,3-b]pyridine-2-carboxamide]
13 | > 5000 | 10 to 100 | O=C(NCc1nc2ccccc2o1)c1cc2c(-c3cncc(-c4ccc(N5CCCC5=O)cc4)c3)ccnc2[nH]1 [Example 245, N-(benzo[d]oxazol-2-ylmethyl)-4-(5-(4-(2-oxopyrrolidin-1-yl)phenyl)pyridin-3-yl)-1H-pyrrolo[2,3-b]pyridine-2-carboxamide]
14 | 100 to 1000 | 10 to 100 | O=C(NCCc1ccccn1)c1cc2c(-c3cncc(-c4ccc(N5CCCC5=O)cc4)c3)ccnc2[nH]1 [Example 246, 4-(5-(4-(2-oxopyrrolidin-1-yl)phenyl)pyridin-3-yl)-N-(2-(pyridin-2-yl)ethyl)-1H-pyrrolo[2,3-b]pyridine-2-carboxamide]
15 | 100 to 1000 | 10 to 100 | O=C(NCCc1ccncc1)c1cc2c(-c3cncc(-c4ccc(N5CCCC5=O)cc4)c3)ccnc2[nH]1 [Example 247, 4-(5-(4-(2-oxopyrrolidin-1-yl)phenyl)pyridin-3-yl)-N-(2-(pyridin-4-yl)ethyl)-1H-pyrrolo[2,3-b]pyridine-2-carboxamide]
16 | 1000 to 2500 | 100 to 1000 | COC(=O)c1cc2c(-c3cncc(-c4ccc(N5CCCC5=O)cn4)c3)ccnc2[nH]1 [Example 248, methyl 4-(5-(2-oxopyrrolidin-1-yl)-[2,3′-bipyridin]-5′-yl)-1H-pyrrolo[2,3-b]pyridine-2-carboxylate]
17 | 100 to 1000 | 10 to 100 | O=C(NCCc1nn[nH]n1)c1cc2c(-c3cncc(-c4ccc(N5CCCC5=O)cc4)c3)ccnc2[nH]1 [Example 251, N-(2-(2H-tetrazol-5-yl)ethyl)-4-(5-(4-(2-oxopyrrolidin-1-yl)phenyl)pyridin-3-yl)-1H-pyrrolo[2,3-b]pyridine-2-carboxamide]
18 | 10 to 100 | 10 to 100 | CN(C)C(=O)c1cnc2[nH]c(C3CC3)c(-c3cncc(-c4ccc(N5CCCC5=O)cc4)c3)c2c1 [Example 252, 2-cyclopropyl-N,N-dimethyl-3-(5-(4-(2-oxopyrrolidin-1-yl)phenyl)pyridin-3-yl)-1H-pyrrolo[2,3-b]pyridine-5-carboxamide]
19 | 100 to 1000 | 100 to 1000 | O=C1CCCN1c1ccc(-c2cncc(-n3ccc4ncccc43)c2)cc1 [Example 253, 1-(4-(5-(1H-pyrrolo[3,2-b]pyridin-1-yl)pyridin-3-yl)phenyl)pyrrolidin-2-one]
